Data reported in BindingDB's records for patent US11814367 (Maze Therapeutics, 2023).

Assays:
[1] = biological target: T1, Glycogen [starch] synthase, muscle (Homo sapiens, UniProt P13807); test: Kinetic Biochemical Assay
T1 sequence (P13807 whole entry): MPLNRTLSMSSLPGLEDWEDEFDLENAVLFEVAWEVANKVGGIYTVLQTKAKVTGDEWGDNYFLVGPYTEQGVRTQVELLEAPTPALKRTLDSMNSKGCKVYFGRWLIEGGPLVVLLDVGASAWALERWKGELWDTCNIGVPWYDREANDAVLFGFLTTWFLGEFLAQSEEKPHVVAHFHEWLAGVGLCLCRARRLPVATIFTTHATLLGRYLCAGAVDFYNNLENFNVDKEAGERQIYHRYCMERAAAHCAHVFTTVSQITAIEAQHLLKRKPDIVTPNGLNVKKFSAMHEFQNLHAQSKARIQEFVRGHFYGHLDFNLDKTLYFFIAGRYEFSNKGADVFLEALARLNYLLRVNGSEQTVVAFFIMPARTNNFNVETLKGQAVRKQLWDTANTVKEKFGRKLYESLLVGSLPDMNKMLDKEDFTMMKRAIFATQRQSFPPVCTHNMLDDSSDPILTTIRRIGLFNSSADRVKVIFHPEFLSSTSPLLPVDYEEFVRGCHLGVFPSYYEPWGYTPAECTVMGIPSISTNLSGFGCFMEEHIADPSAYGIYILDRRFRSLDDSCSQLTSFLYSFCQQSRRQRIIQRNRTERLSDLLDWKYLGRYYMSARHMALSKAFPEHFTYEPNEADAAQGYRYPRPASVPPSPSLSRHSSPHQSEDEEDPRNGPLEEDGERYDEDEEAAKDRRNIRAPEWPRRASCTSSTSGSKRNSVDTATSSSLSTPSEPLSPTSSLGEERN
Experimental: The Assay Buffer contained 50 mM Tris pH 7.5, 2 mM MgCl2, and 100 mM KCl. Fresh stocks of BSA at a final concentration of 0.02% and TCEP at 1 mM were added before splitting buffer into hGYS1 buffer and substrate buffer. To the hGYS1 buffer, rabbit liver glycogen was added at a final concentration of 0.2% glycogen. Glucose-6-Phosphate was added at 1 mM, recombinant hGYS1/GN1 protein was added at 50 nM to the substrate buffer, phosphoenolpyruvate (PEP) was added at 2 mM, UDP-Glucose was added at 0.8 mM, NADH) was added at 0.6 mM, and Pyruvate Kinase/Lactate Dehydrogenase was added at 20 units/mL. The reaction was initiated by mixing hGYS1 buffer and substrate buffer at a 1:1 ratio. Both buffers were plated using a liquid dispensing device with hGYS1 buffer plated first followed by the substrate buffer. Plates were spun briefly to eliminate air bubbles and are immediately read in continuous mode at an absorbance of 340 nm, for 10 time points in one-minute increments, for a total of 10 minutes. The slope from these 10 time points was normalized to the positive and negative control wells.

[2] = biological target: T2, Glycogen [starch] synthase, liver (Homo sapiens, UniProt P54840); test: The GYS2 coupled enzyme assay
T2 sequence (P54840 whole entry): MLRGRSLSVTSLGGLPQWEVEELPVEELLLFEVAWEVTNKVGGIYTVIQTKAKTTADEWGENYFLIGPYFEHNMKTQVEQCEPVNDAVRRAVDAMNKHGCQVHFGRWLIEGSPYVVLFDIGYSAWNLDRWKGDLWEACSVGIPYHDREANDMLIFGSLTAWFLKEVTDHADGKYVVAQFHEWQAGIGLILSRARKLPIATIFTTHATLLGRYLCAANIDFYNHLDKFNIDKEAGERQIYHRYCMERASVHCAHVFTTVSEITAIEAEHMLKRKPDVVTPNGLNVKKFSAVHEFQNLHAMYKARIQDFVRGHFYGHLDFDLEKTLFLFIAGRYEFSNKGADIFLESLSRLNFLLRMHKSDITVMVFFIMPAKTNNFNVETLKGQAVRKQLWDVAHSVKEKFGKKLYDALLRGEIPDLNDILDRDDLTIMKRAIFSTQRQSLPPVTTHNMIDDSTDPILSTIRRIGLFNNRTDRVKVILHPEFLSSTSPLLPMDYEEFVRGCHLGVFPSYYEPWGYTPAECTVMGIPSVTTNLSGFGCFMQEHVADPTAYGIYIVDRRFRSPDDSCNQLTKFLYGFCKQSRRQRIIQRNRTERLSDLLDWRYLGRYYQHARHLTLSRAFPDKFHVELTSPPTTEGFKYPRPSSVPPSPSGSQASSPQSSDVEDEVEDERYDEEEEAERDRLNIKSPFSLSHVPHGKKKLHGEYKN
Experimental: Compounds that inhibit the hGYS2 enzyme and, subsequently, the downstream conversion of NADH to NAD+, were tested using assay ready plates (black, clear bottom 384 well plates) in a final DMSO reaction volume of 2.5% DMSO. The Assay Buffer contained 50 mM Tris pH 7.5, 2 mM MgCl2, and 100 mM KCl. Fresh stocks of BSA at a final concentration of 0.02% and TCEP 1 mM were added before splitting buffer into hGYS2 buffer and substrate buffer. To the hGYS2 buffer, rabbit liver glycogen was added at a final concentration of 0.2% glycogen. Glucose-6-Phosphate was added at 2 mM, recombinant hGYS2/GN1 protein was added at 200 nM to the substrate buffer, phosphoenolpyruvate (PEP) was added at 2 mM, UDP-Glucose was added at 2 mM, NADH was added at 0.6 mM, and Pyruvate Kinase/Lactate Dehydrogenase was added at 20 units/mL. The reaction was initiated by mixing hGYS2 buffer and substrate buffer at a 1:1 ratio. Both buffers were plated using a liquid dispensing device with hGYS2 buffer plated first followed by the substrate buffer. Plates were spun briefly to eliminate air bubbles and are immediately read in continuous mode at an absorbance of 340 nm, for 10 time points in one-minute increments, for a total of 10 minutes. The slope from these 10 time points was normalized to the positive and negative control wells. The duplicate % inhibition values are then averaged and fit to a Hill equation for dose response according to the Levenberg-Marquardt algorithm with the Hill equation maximum set to 100 and the minimum set to 0.The results are shown in Table 4 below

For `CC(=O)N1C[C@H](F)C[C@H]1C(=O)NC(c1ccc2cn[nH]c2c1)c1ccc(C(C)C)c(F)n1` (single isomer, unassigned) [US11814367, Compound 634], the IC50 [1] was 43 nM.
`CC(=O)N1C[C@H](F)C[C@H]1C(=O)NC(c1ccc2cnn(C)c2c1)c1ccc(C(C)C)c(F)n1` (single isomer, unassigned) [US11814367, Compound 635] showed an IC50 [1] of 82 nM.
For `CC(=O)N1C[C@H](F)C[C@H]1C(=O)NC(c1ccc2cn(C)nc2c1)c1ccc(C(C)C)c(F)n1` (single isomer, unassigned) [US11814367, Compound 636], the IC50 [1] was 71 nM.
Work on `CC(=O)N1C[C@H](F)C[C@H]1C(=O)NC(c1ccc2cn[nH]c2c1)c1ccc(C2CC2)c(F)n1` (single isomer, unassigned) [US11814367, Compound 637] yielded an IC50 [1] of 453 nM.
For `CC(=O)N1C[C@H](F)C[C@H]1C(=O)NC(c1ccc(C(C)C)cc1)c1ccccc1N` (single isomer, unassigned) [US11814367, Compound 642], the IC50 [1] was 1330 nM and the IC50 [2] was > 100000 nM.
In the case of `COc1cccc(C(NC(=O)[C@@H]2C[C@@H](F)CN2C(C)=O)c2ccc(C(C)C)c(F)n2)c1` (single isomer, unassigned) [US11814367, Compound 654], the IC50 [1] is reported as 252 nM.
With `CC(=O)N1C[C@H](F)C[C@H]1C(=O)NC(c1ccccc1)c1ccc(C2CCC2)c(F)c1` (single isomer, unassigned) [US11814367, Compound 660] the IC50 [1] was 309 nM and the IC50 [2] was > 100000 nM.
`CC(=O)N1C[C@H](F)C[C@H]1C(=O)NC(c1cccc(-c2cc(C)nn2C)c1)c1ccc(C(C)C)c(F)n1` (single isomer, unassigned) [US11814367, Compound 697] gave an IC50 [1] of 1780 nM.
With `CC(=O)N1Cc2nccnc2CC1C(=O)N1C[C@H](F)C[C@H]1C(=O)N[C@@H](c1ccccc1)c1ccc(C(C)C)cc1` (some centres not stated) [US11814367, Compound 167] the IC50 [1] was 116 nM and the IC50 [2] was > 100000 nM.
`CC(C)c1ccc([C@@H](NC(=O)[C@@H]2C[C@@H](F)CN2C(=O)CC2COC2)c2ccccc2)cc1` [US11814367, Compound 218] was tested, and the IC50 [1] was 293 nM and the IC50 [2] was > 100000 nM.
With `CC(C)c1ccc([C@@H](NC(=O)[C@@H]2C[C@@H](F)CN2C(=O)COC(=O)N(C)C)c2ccccc2)nc1` [US11814367, Compound 251] the IC50 [1] was 53 nM and the IC50 [2] was > 100000 nM.
`NC(=O)NCC(=O)N1C[C@H](F)C[C@H]1C(=O)N[C@@H](c1ccccc1)c1ccc(C2CC2)c(F)n1` [US11814367, Compound 302] was tested, and the IC50 [1] was 67 nM and the IC50 [2] was > 100000 nM.
`O=C(N[C@@H](c1ccccc1)c1ccc(C2CC2)c(F)n1)[C@@H]1C[C@@H](F)CN1C(=O)CNC(=O)N1CCC1` [US11814367, Compound 305] showed an IC50 [1] of 24 nM.
For `CC(C)c1ccc([C@@H](NC(=O)[C@@H]2C[C@@H](F)CN2C(=O)CNC(=O)N(C)C)c2ccccc2)cc1F` [US11814367, Compound 361], the IC50 [1] was 10 nM and the IC50 [2] was > 100000 nM.
With `CC(C)c1ccc([C@@H](NC(=O)[C@@H]2C[C@@H](F)CN2C(=O)c2ccc3c(cnn3C)c2)c2ccccc2)cc1` [US11814367, Compound 702] the IC50 [1] was 1260 nM.
`O=C(N[C@H](c1ccccc1)c1ccc(C2CC2)c(F)n1)[C@@H]1C[C@@H](F)CN1C(=O)Cn1cnc2ccccc21` [US11814367, Compound 716] gave an IC50 [1] of 2160 nM.
For `CC(C)c1ccc([C@@H](NC(=O)[C@@H]2C[C@@H](F)CN2C(=O)Cn2cc(N3CCC3)nn2)c2ccccc2)nc1F` [US11814367, Compound 787], the IC50 [1] was 7 nM and the IC50 [2] was > 100000 nM.
In the case of `COc1nc(CC(=O)N2C[C@H](F)C[C@H]2C(=O)N[C@@H](c2ccccc2)c2ccc(C(C)C)c(F)n2)nn1C` [US11814367, Compound 800], the IC50 [1] is reported as 9 nM.
For `CC(C)c1ccc([C@@H](NC(=O)[C@@H]2C[C@@H](F)CN2C(=O)Cc2nc(C(F)(F)F)co2)c2ccccc2)nc1F` [US11814367, Compound 801], the IC50 [1] was 24 nM.
